Measurements: ChEMBL document CHEMBL5325400 (Eur J Med Chem, 2023)
Activity calls are given as the source filed them. The rule behind the calls is not given here.

Assays:
[1] = tested on: B16-F10; test: Antiproliferative activity against mouse B16-F10 cells assessed as inhibition of cell growth measured after 48 hrs by MTT assay; type: functional, cell-based; details: B16-F10, 48 h
[2] = tested on: A549; test: Antiproliferative activity against human A549 cells expressing lentivirus RNAi VTI-96658 assessed as inhibition of cell growth measured after 48 hrs by MTT assay; type: functional, cell-based
[3] = target: Tubulin; test: Binding affinity to tubulin (unknown origin) assessed as dissociation constant by SPR analysis; type: protein-complex assay, Homo sapiens
[4] = tested on: A549; test: Induction of cell cycle arrest in human A549 cells assessed as accumulation at G2 phase at 40 nM incubated for 24 hrs by PI staining based flow cytometry (Rvb= 12.49%); type: functional
[5] = tested on: A549; test: Induction of cell cycle arrest in human A549 cells assessed as accumulation at G1 phase at 10 nM incubated for 24 hrs by PI staining based flow cytometry (Rvb= 65.68%); type: functional
[6] = tested on: A549; test: Induction of cell cycle arrest in human A549 cells assessed as accumulation at G1 phase at 20 nM incubated for 24 hrs by PI staining based flow cytometry (Rvb= 65.68%); type: functional
[7] = tested on: A549; test: Induction of cell cycle arrest in human A549 cells assessed as accumulation at S phase at 20 nM incubated for 24 hrs by PI staining based flow cytometry (Rvb= 20.94%); type: functional
[8] = tested on: A549; test: Induction of apoptosis in human A549 cells assessed as viable cells at 20 nM incubated for 24 hrs by annexin V-FITC/propidium iodide staining based flow cytometry analysis (reference value: 96.44%); type: functional; details: read-out: Activity
[9] = tested on: A549; test: Induction of apoptosis in human A549 cells assessed as viable cells at 40 nM incubated for 24 hrs by annexin V-FITC/propidium iodide staining based flow cytometry analysis (reference value: 96.44%); type: functional; details: read-out: Activity
[10] = tested on: A549; test: Induction of apoptosis in human A549 cells assessed as early apoptotic cells at 10 nM incubated for 24 hrs by annexin V-FITC/propidium iodide staining based flow cytometry analysis (reference value: 0.84%); type: functional
[11] = tested on: A549; test: Induction of apoptosis in human A549 cells assessed as early apoptotic cells at 40 nM incubated for 24 hrs by annexin V-FITC/propidium iodide staining based flow cytometry analysis (reference value: 0.84%); type: functional
[12] = tested on: A549; test: Induction of apoptosis in human A549 cells assessed as late apoptotic cells at 10 nM incubated for 24 hrs by annexin V-FITC/propidium iodide staining based flow cytometry analysis (reference value: 0.37%); type: functional
[13] = tested on: A549; test: Induction of apoptosis in human A549 cells assessed as necrotic cells at 10 nM incubated for 24 hrs by annexin V-FITC/propidium iodide staining based flow cytometry analysis (reference value: 2.36%); type: functional
[14] = tested on: A549; test: Induction of apoptosis in human A549 cells assessed as downregulation of Bcl-2 protein at 10 to 40 nM measured after 48 hrs by Western blot analysis; type: functional, cell-based; details: dose 10-40 nM
[15] = tested on: A549; test: Antimigratory activity against human A549 cells assessed as inhibition of cell migration at 5 nM and incubated for 12 hrs by scratch wound healing assay (reference value: 29.5 +/- 1.34%); type: functional; design: scale not given: the % may be the effect or the level left
[16] = tested on: B16-F10; test: Antimigratory activity against mouse B16-F10 cells assessed as inhibition of cell migration at 40 nM and incubated for 12 hrs by scratch wound healing assay (reference value: 81.9 +/- 0.64%); type: functional; design: scale not given: the % may be the effect or the level left
[17] = tested on: A549; test: Inhibition of cell migration in human A549 cells assessed as total number of cells migrated at 10 nM incubated for 12 hrs by crystal violet staining based transwell assay (reference value: 724 +/- 16); type: functional
[18] = tested on: A549; test: Inhibition of cell migration in human A549 cells assessed as total number of cells migrated at 20 nM incubated for 12 hrs by crystal violet staining based transwell assay (reference value: 724 +/- 16); type: functional
[19] = tested on: A549; test: Inhibition of cell migration in human A549 cells assessed as total number of cells migrated at 40 nM incubated for 12 hrs by crystal violet staining based transwell assay (reference value: 724 +/- 16); type: functional
[20] = tested on: B16-F10; test: Inhibition of cell migration in mouse B16-F10 cells assessed as total number of cells migrated at 10 nM incubated for 12 hrs by crystal violet staining based transwell assay (reference value: 692 +/- 11); type: functional
[21] = tested on: B16-F10; test: Inhibition of cell migration in mouse B16-F10 cells assessed as total number of cells migrated at 40 nM incubated for 12 hrs by crystal violet staining based transwell assay (reference value: 692 +/- 11); type: functional
[22] = Cmax in Sprague-Dawley rat at 1 mg/kg, iv by LC-MS analysis; type: ADME, organism-based; design: dose 1 mg/kg, route iv; details: in vivo
[23] = Volume of distribution in Sprague-Dawley rat at 1 mg/kg, iv by LC-MS analysis; type: ADME, organism-based; details: in vivo
[24] = Clearance in Sprague-Dawley rat at 1 mg/kg, iv by LC-MS analysis; type: ADME, organism-based; details: in vivo
[25] = Toxicity in BALB/c mouse assessed as drug tolerability at 10 mg/kg, ip; type: organism-based; details: in vivo
[26] = tested on: A549; test: Antitumor activity against human A549 cells xenografted in BALB/c mouse assessed as tumor growth inhibition at 5 mg/kg, ip administered every other day for 25 days; type: functional; details: A549, 600 h, time 25 day, read-out: TGI
[27] = Toxicity in BALB/c mouse xenografted with human A549 cells assessed as change in body weight at 5 mg/kg, ip administered every other day for 25 days; type: organism-based; details: in vivo, 600 h, time 25 day
[28] = tested on: A549; test: Antitumor activity against human A549 cells xenografted in ip dosed BALB/c mouse assessed as decrease in Ki-67 expression in tumor administered every other day for 25 days by immunohistochemistry analysis; type: functional, organism-based; details: dose 10.0 mg/kg, time 25.0 day
[29] = tested on: A549; test: Antitumor activity against human A549 cells xenografted in BALB/c mouse assessed as downregulation of Bcl-2 expression in tumor at 5 mg/kg, ip administered every other day for 25 days by Western blotting analysis; type: functional, organism-based; details: time 25.0 day
[30] = Toxicity in BALB/c nude mouse xenografted with human A549 cells assessed as pathological changes in heart at 5 to 10 mg/kg, ip administered every other day for 25 days by hematoxylin and eosin staining based microscopic analysis; type: organism-based; details: in vivo, 600 h, dose 5-10 mg/kg, time 25 day
[31] = Toxicity in BALB/c nude mouse xenografted with human A549 cells assessed as pathological changes in liver at 5 to 10 mg/kg, ip administered every other day for 25 days by hematoxylin and eosin staining based microscopic analysis; type: organism-based; details: in vivo, 600 h, dose 5-10 mg/kg, time 25 day
[32] = tested on: A549; test: Antitumor activity against human A549 cells xenografted in BALB/c mouse assessed as reduction in AKT phosphorylation at S473 residue in tumor at 5 to 10 mg/kg, ip administered every other day for 25 days by Western blotting analysis; type: functional, organism-based; details: dose 5-10 mg/kg, time 25.0 day
[33] = tested on: A549; test: Residual cell migration in human A549 cells at 10 nM incubated for 12 hrs by crystal violet staining based transwell assay; details: A549, 12 h
[34] = tested on: A549; test: Residual cell migration in human A549 cells at 40 nM incubated for 12 hrs by crystal violet staining based transwell assay; details: A549, 12 h

COc1cccc(Nc2cc(Nc3cccc(NC(=O)C4CC4)c3)ncn2)c1
IC50 [1]: 0.0033 µM
Activity [2]: Active
Kd [3]: 43.2 µM
Activity [4]: 53.15%
Activity [5]: 58.47%
Activity [6]: 48%
Activity [7]: 15.49%
viability at 0.02 µM [8]: 76%
viability at 0.04 µM [9]: 63.6%
Activity [10]: 1.5%
Activity [11]: 3.86%
Activity [12]: 9.78%
Activity [13]: 6.5%
Activity [14]: Active
Activity [15]: 23.2%
Activity [16]: 29.1%
Activity [17]: 486
Activity [18]: 397
Activity [19]: 157
Activity [20]: 510
Activity [21]: 221
Cmax [22]: 87.86 ng/mL
Vd [23]: 1.3 L/kg
clearance [24]: 69.8 mL/min/kg
Activity [25]: Non-Toxic
inhibition in vivo at 5 mg/kg [26]: 39.1%
Activity [27]: Non-Toxic
Activity [28]: Dose-Dependent Effect
Activity [29]: Active
Activity [30]: Non-Toxic
Activity [31]: Non-Toxic
Activity [32]: inactive
level, % of control at 0.01 µM [33]: 70.6%
level, % of control at 0.04 µM [34]: 32.9%
